US12195482B1 (Arcus Biosciences, Inc., priority 2022, dated 2025)

Tests used:
[1] = target: T1, recombinant human MER (Homo sapiens, UniProt Q12866); assay: Biochemical potency, HTRF KinEASE-TK kinase assay; details: 1 nM MER, 700 μM ATP
T1 construct: purchased Invitrogen
T1 sequence (Q12866 21-999): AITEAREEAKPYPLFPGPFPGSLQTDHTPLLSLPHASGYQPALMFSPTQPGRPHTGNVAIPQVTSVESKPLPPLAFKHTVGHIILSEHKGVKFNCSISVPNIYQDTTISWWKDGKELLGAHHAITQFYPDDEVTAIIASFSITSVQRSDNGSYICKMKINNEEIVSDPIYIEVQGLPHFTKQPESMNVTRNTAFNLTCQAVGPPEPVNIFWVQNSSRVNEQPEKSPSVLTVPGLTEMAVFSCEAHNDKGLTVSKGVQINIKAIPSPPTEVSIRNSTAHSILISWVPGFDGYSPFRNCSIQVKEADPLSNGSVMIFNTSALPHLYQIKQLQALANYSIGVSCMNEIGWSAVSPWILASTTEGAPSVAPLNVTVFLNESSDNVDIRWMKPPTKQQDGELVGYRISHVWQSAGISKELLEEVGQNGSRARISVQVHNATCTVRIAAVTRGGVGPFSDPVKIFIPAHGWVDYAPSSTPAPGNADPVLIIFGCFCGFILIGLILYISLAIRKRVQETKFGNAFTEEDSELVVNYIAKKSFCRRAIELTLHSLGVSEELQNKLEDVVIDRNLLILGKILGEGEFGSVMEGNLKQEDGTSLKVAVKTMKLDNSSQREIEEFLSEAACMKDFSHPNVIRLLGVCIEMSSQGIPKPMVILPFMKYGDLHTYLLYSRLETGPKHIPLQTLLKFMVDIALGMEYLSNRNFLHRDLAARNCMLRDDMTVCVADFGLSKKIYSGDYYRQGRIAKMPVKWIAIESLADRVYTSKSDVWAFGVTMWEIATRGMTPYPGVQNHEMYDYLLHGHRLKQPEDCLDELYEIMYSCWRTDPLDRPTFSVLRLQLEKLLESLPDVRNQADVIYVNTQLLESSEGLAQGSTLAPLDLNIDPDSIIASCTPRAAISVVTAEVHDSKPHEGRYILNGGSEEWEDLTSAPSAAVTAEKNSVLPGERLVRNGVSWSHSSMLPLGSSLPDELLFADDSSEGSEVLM
Experimental: (§1) Measurement of Biochemical Compound Potency of Axl Inhibitors
(§2) Purified recombinant human AXL, TYRO3 and MER proteins were purchased from Invitrogen™. 10 nM AXL, 2 nM TYRO3 or MER were incubated with varying concentrations of compounds in 50 mM HEPES, pH 7.4, 10 mM MgCl2, 0.01% BSA, 1 mM DTT and 2% DMSO in a total volume of 20 μl in a 384-well microplate (Corning™ #3640) at RT for 1 h. The AXL, TYRO3 and MER enzymatic reaction was initiated by transferring 10 μl of enzyme and compound mixture into 10 μl of 1.6 μM TK Substrate-biotin (HTRF® KinEASE-TK kit, Cisbio) and 1400 μM ATP pre-incubated in 50 mM HEPES, pH 7.4, 10 mM MgCl2, 0.01% BSA, 1 mM DTT in a 384-well microplate (Corning™ #3640) at RT, giving the final reaction conditions: 5 nM AXL, 1 nM TYRO3 or MER, 800 nM TK Substrate-biotin and 700 μM ATP in 50 mM HEPES, pH 7.4, 10 mM MgCl2, 0.01% BSA, 1 mM DTT and 1% DMSO with varying concentrations of compounds. Following 2 h incubation at RT, the AXL, TYRO3 and MER enzymatic reaction was stopped by transfer of 10 μl of reaction into 10 μl of detection mix (400 nM Streptavidin-XL665, 200-fold dilution TK Antibody-Cryptate and detection buffer, HTRF® KinEASE-TK kit, Cisbio) in a white 384-well microplate (Perkin Elmer, OptiPlate 384). After 1 h incubation at RT, the plate was put into a plate reader (Evision) to read at 665/620 nm (acceptor/donor) for HTRF. The value of the DMSO blank (MIN inhibition=100% activity) was used as a negative control. The positive control was established by adding 5 μl of enzyme and DMSO mixture into 10 μl of detection mix followed by addition of 5 μl of TK Substrate-biotin and ATP mixture (MAX inhibition=0% activity). To calculate the percent activity, Equation 1 was used. Ratio665/620 is the value at a given compound concentration: […]

[2] = target: T2, recombinant human TYRO3 (Homo sapiens, UniProt Q06418); assay: Biochemical potency, HTRF KinEASE-TK kinase assay; details: 1 nM TYRO3, 700 μM ATP
T2 construct: purchased Invitrogen
T2 sequence (Q06418 41-890): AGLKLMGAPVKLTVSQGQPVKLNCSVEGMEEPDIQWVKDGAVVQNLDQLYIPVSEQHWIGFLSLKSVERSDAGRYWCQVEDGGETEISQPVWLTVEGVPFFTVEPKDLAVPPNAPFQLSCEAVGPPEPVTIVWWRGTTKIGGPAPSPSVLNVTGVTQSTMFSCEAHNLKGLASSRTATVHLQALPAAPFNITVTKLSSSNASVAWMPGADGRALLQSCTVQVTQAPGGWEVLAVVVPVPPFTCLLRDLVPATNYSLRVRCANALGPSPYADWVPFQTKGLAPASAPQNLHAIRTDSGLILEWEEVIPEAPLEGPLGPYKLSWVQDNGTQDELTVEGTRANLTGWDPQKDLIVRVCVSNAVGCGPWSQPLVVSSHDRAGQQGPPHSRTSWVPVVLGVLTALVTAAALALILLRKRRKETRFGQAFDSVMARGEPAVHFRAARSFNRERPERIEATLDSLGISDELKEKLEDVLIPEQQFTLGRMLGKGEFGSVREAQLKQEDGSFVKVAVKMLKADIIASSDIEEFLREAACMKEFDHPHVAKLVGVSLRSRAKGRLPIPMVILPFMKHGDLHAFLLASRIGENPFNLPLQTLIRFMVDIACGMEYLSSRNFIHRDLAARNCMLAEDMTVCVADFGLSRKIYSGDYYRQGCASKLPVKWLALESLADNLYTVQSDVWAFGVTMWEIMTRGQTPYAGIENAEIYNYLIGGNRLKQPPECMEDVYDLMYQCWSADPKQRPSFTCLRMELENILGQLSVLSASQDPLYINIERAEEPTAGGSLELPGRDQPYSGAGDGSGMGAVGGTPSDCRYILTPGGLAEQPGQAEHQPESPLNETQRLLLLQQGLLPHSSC
Experimental: as §1, §2

SMILES	IC50 [1]	IC50 [2]
Cc1cccc(-c2ccc(-c3n[nH]c4ncc(-c5ccc6c(c5)CC[C@@H](N5C7COCC5C7)CC6)cc34)cc2)n1 [Example 116, 6-[(7S)-2-{3-[4-(6-Methylpyridin-2-yl)phenyl]-1H-pyrazolo[3,4-b]pyridin-5-yl}-6,7,8,9-tetrahydro-5H-benzo[7]annulen-7-yl]-3-oxa-6-azabicyclo[3.1.1]heptane]	100 to 1000 nM	100 to 1000 nM
c1cnc(-c2ccc(-c3c[nH]c4ncc(-c5ccc6c(c5)CC[C@@H](N5C7COCC5C7)CC6)cc34)cc2)c(C2CC2)c1 [Example 178, 6-[(7S)-2-{3-[4-(3-Cyclopropylpyridin-2-yl)phenyl]-1H-pyrrolo[2,3-b]pyridin-5-yl}-6,7,8,9-tetrahydro-5H-benzo[7]annulen-7-yl]-3-oxa-6-azabicyclo[3.1.1]heptane]	100 to 1000 nM	100 to 1000 nM
O=C1CCCN1c1cccnc1-c1ccc(-c2c[nH]c3ncc(-c4ccc5c(c4)CC[C@@H](N4C6COCC4C6)CC5)cc23)cc1 [Example 7, 1-[2-(4-{5-[(7S)-7-{3-Oxa-6-azabicyclo[3.1.1]heptan-6-yl}-6,7,8,9-tetrahydro-5H-benzo[7]annulen-2-yl]-1H-pyrrolo[2,3-b]pyridin-3-yl}phenyl)pyridin-3-yl]pyrrolidin-2-one]	100 to 1000 nM	< 100 nM
c1ccc(-c2ccc(-c3c[nH]c4ncc(-c5ccc6c(c5)CC[C@@H](N5C7COCC5C7)CC6)cc34)cc2)nc1 [Example 155, 6-[(7S)-2-{3-[4-(Pyridin-2-yl)phenyl]-1H-pyrrolo[2,3-b]pyridin-5-yl}-6,7,8,9-tetrahydro-5H-benzo[7]annulen-7-yl]-3-oxa-6-azabicyclo[3.1.1]heptane]	> 1000 nM	100 to 1000 nM
O=c1ccccn1-c1ccc(-c2n[nH]c3ncc(-c4ccc5c(c4)CC[C@@H](N4C6COCC4C6)CC5)cc23)cc1 [Example 31, 1-[4-[5-[(7S)-7-(3-Oxa-6-azabicyclo[3.1.1]heptan-6-yl)-6,7,8,9-tetrahydro-5H-benzo[7]annulen-3-yl]-1H-pyrazolo[3,4-b]pyridin-3-yl]phenyl]pyridin-2-one]	> 1000 nM	> 1000 nM
Cc1cccnc1-c1ccc(-c2c[nH]c3ncc(-c4ccc5c(c4)CC[C@@H](N4C6COCC4C6)CC5)cc23)nc1 [Example 96, 3-Methyl-6′-{5-[(7S)-7-{3-oxa-6-azabicyclo[3.1.1]heptan-6-yl}-6,7,8,9-tetrahydro-5H-benzo[7]annulen-2-yl]-1H-pyrrolo[2,3-b]pyridin-3-yl}-2,3′-bipyridine]	100 to 1000 nM	< 100 nM
Cn1nncc1-c1ccc(-c2n[nH]c3ncc(-c4ccc5c(c4)CC[C@@H](N4C6COCC4C6)CC5)cc23)cc1 [Example 13, 6-[(7S)-2-{3-[4-(1-Methyl-1H-1,2,3-triazol-5-yl)phenyl]-1H-pyrazolo[3,4-b]pyridin-5-yl}-6,7,8,9-tetrahydro-5H-benzo[7]annulen-7-yl]-3-oxa-6-azabicyclo[3.1.1]heptane]	> 1000 nM	> 1000 nM
Cn1nccc1-c1ccc(-c2n[nH]c3ncc(-c4ccc5c(c4)CC[C@@H](N4C6COCC4C6)CC5)cc23)cc1 [Example 109, 6-[(7S)-2-{3-[4-(1-Methyl-1H-pyrazol-5-yl)phenyl]-1H-pyrazolo[3,4-b]pyridin-5-yl}-6,7,8,9-tetrahydro-5H-benzo[7]annulen-7-yl]-3-oxa-6-azabicyclo[3.1.1]heptane]	100 to 1000 nM	100 to 1000 nM

Other lines, results leading:

IC50 [1]	IC50 [2]	SMILES
< 100 nM	< 100 nM	Cc1cncnc1-c1ccc(-c2n[nH]c3ncc(-c4ccc5c(c4)CC[C@@H](N4C6COCC4C6)CC5)cc23)cc1 [Example 174, 6-[(7S)-2-{3-[4-(5-Methylpyrimidin-4-yl)phenyl]-1H-pyrazolo[3,4-b]pyridin-5-yl}-6,7,8,9-tetrahydro-5H-benzo[7]annulen-7-yl]-3-oxa-6-azabicyclo[3.1.1]heptane]
< 100 nM	< 100 nM	Cn1ccnc1-c1ccc(-c2n[nH]c3ncc(-c4ccc5c(c4)CC[C@@H](N4C6COCC4C6)CC5)cc23)cc1 [Example 111, 6-[(7S)-2-{3-[4-(1-Methyl-1H-imidazol-2-yl)phenyl]-1H-pyrazolo[3,4-b]pyridin-5-yl}-6,7,8,9-tetrahydro-5H-benzo[7]annulen-7-yl]-3-oxa-6-azabicyclo[3.1.1]heptane]
100 to 1000 nM	< 100 nM	Cn1ncnc1-c1ccc(-c2n[nH]c3ncc(-c4ccc5c(c4)CC[C@@H](N4C6COCC4C6)CC5)cc23)cc1 [Example 110, 6-[(7S)-2-{3-[4-(1-Methyl-1H-1,2,4-triazol-5-yl)phenyl]-2H-pyrazolo[3,4-b]pyridin-5-yl}-6,7,8,9-tetrahydro-5H-benzo[7]annulen-7-yl]-3-oxa-6-azabicyclo[3.1.1]heptane]
< 100 nM	< 100 nM	Cc1cccnc1-c1ccc(-c2n[nH]c3ncc(-c4ccc5c(c4)CC[C@@](C)(N4CCC[C@H]4C)CC5)cc23)cc1 [Example 163, 3-Methyl-2-(4-{5-[(7S)-7-methyl-7-[(2R)-2-methylpyrrolidin-1-yl]-6,7,8,9-tetrahydro-5H-benzo[7]annulen-2-yl]-2H-pyrazolo[3,4-b]pyridin-3-yl}phenyl)pyridine]
< 100 nM	< 100 nM	O=C1OCCN1c1cccnc1-c1ccc(-c2n[nH]c3ncc(-c4ccc5c(c4)CC[C@@H](N4C6COCC4C6)CC5)cc23)cc1 [Example 121, 3-[2-(4-{5-[(7S)-7-{3-Oxa-6-azabicyclo[3.1.1]heptan-6-yl}-6,7,8,9-tetrahydro-5H-benzo[7]annulen-2-yl]-1H-pyrazolo[3,4-b]pyridin-3-yl}phenyl)pyridin-3-yl]-1,3-oxazolidin-2-one]
